Legend:
[1] = test system: Wnt pathway (Sp5-Luc reporter, TCF/LEF binding sites) in SW480 colon carcinoma cells; test: Screening assay for Wnt activity: Sp5-Luc reporter gene assay; format: cell-based, human; conditions: Homo sapiens; Sp5-Luc reporter, SW480 cells, 36 to 48 hours;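 also: firefly luciferase luminescence read in stably transduced SW480 cells carrying the Sp5 promoter reporter with eight TCF/LEF sites, compounds given in 0.1% DMSO final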
Experimental: The screening assay for Wnt activity is described as follows.
Following incubation, 15 μl of BriteLite Plus luminescence reagent (Perkin Elmer) was added to each well of the 384-well assay plates. The plates were placed on an orbital shaker for 2 min and then luminescence was quantified using the Envision (Perkin Elmer) plate reader.

[2] = target: recombinant DYRK1A kinase (Homo sapiens (Human), UniProt Q13627); test: DYRK1A kinase assay (Ser/Thr 18 peptide Z-lyte FRET); format: biochemical; conditions: 30 μM ATP, 1 h room temperature;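 also: Read-out is the coumarin to fluorescein emission ratio, referenced to unphosphorylated (0%) and phosphorylated (100%) Ser/Thr 18 peptide controls, values from dose-response curves by non-linear regression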
[3] = target: recombinant GSK3β kinase (Homo sapiens (Human), UniProt P49841); test: GSK3β kinase assay (Ser/Thr 09 peptide Z-lyte FRET); format: biochemical; conditions: 46 μM ATP, 1 h room temperature;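 also: kinase activity read as coumarin to fluorescein emission ratio, 11-point threefold dilutions from 10 µM to 0.0003 µM in duplicate, unphosphorylated and phosphorylated peptide as 0% and 100% controls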
Sequence of recombinant GSK3β kinase (P49841 whole entry): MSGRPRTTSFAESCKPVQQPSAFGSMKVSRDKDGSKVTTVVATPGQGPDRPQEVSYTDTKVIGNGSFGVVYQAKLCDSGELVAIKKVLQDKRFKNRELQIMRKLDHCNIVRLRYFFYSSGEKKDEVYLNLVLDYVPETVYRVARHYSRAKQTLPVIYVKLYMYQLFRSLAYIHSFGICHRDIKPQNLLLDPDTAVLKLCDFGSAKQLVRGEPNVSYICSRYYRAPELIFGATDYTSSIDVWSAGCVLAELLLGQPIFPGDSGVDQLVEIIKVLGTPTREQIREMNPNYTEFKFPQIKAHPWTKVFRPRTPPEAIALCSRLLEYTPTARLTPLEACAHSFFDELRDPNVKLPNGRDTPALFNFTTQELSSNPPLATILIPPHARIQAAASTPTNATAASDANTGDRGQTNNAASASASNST

[4] = test system: Tau phosphorylation at Ser396 (pSer396); test: Tau phosphorylation assay (pSer396 ELISA / western blot) in SH-SY5Y cells; format: cell-based, human; conditions: Homo sapiens; SH-SY5Y cells, overnight (16-18 h) exposure; read-out: pSer396 Tau EC50;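 also: EC50 for reduction of Tau pSer396 in lysed cells, measured by colorimetric ELISA or chemiluminescent western blot, both using the same pSer396 antibody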
Experimental: Two days before treatment, cells were seeded onto 96 well plates at 5×10^4 cells/well.
Wells were visually checked for cell death or change in morphology and supernatants were tested for cytotoxicity by measurement of lactate dehydrogenase release (LDH, CytoToxOne kit, Promega) if necessary.
Cells were lysed with RIPA buffer complemented with phosphatase and protease inhibitors then lysates were spun down at 12,000 g for 10 min to remove any cellular debris. Lysates are then either directly tested for pSer396 by ELISA (Life Technology, Kit KHB7031) or loaded on NuPage Bis-Tris gels for western blot analysis. Colorimetric detection of ELISA signal is performed by Cytation3 plate reader (Biotek) and the chemiluminescence signal for HRP-linked antibodies used in western blotting is detected using a Carestream Image Station. The same pSer396 antibody is used for detection of pTau in both assays.

[5] = test system: SW480 colon carcinoma cells; test: Cell viability assay (CellTiter-Glo); format: cell-based, human; conditions: Homo sapiens, 96 h; SW480 cells, CellTiter-Glo, four days incubation
[6] = test system: α-smooth muscle actin (αSMA) positive LL29 cells; test: Inhibition of fibrotic process: αSMA in TGF-β1 treated primary human fibroblasts from IPF patients; format: cell-based; conditions: Homo sapiens, Fibroblast; for EC50: 96 h, Table 8, LL29 fibroblasts from IPF patients, TGF-β1 20 ng/mL, 4 days, dose-response 10 μM to 0.94 nM; for inhibition at 10 µM: read-out: percent value in parentheses beside EC50 >10 μM;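 as to all read-outs here: controls were TGF-β1 stimulated wells with DMSO vehicle (positive) and cells given DMSO alone (negative), cultured in F12 medium with 1% fetal bovine serum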
[7] = test system: IL-6; test: IL-6 inhibition in LPS-stimulated human peripheral blood mononuclear cells (HTRF); format: cell-based; conditions: Homo sapiens, PBMC; for EC50: Table 9, huPBMCs, LPS 50 ng/mL, 22 hours, dose-response starting from 10 μM; for inhibition at 10 µM: read-out: percent value in parentheses beside EC50 >10 μM;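 as to all read-outs here: IL-6 detected by HTRF with an XL665- and Cryptate-labelled anti-IL-6 antibody pair, samples run in duplicate, EC50 obtained from a four-parameter Levenberg-Marquardt curve fit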
Experimental: After 22 hour incubation, a mixture of anti-IL6 XL665 and anti-IL-6 Cryptate diluted in reconstitution buffer (Catalog #62IL6PEC, Cisbio Inc., Bedford, Mass.) was added to each well. […] All samples were processed in duplicate. […] EC50 was determined using software generated by Dotmatics Limited (Windhill Bishops Stortford Herts, UK) using the Levenberg-Marquardt 4 parameter fitting procedure with finite different gradients.

Compound	EC50 [1]	EC50 [2]	EC50 [3]	EC50 [4]	EC50 [5]	EC50 [6]	EC50 [7]	inhibition at 10 µM [6]	inhibition at 10 µM [7]
Cn1cc(-c2ccc3cnc(NC(=O)C4CNC4)cc3c2)cn1 [Compound 16, N-(6-(1-Methyl-1H-pyrazol-4-yl)isoquinolin-3-yl)azetidine-3-carboxamide]	> 10000 nM	3.9 nM	24 nM	> 10000 nM	7840 nM	1270 nM	2170 nM	–	–
Cn1cc(-c2ccc3cnc(NC(=O)CN4CC[C@H](F)C4)cc3c2)cn1 [Compound 69, (S)-2-(3-Fluoropyrrolidin-1-yl)-N-(6-(1-methyl-1H-pyrazol-4-yl)isoquinolin-3-yl)acetamide]	3700 nM	6.2 nM	13 nM	383 nM	3930 nM	394 nM	2160 nM	–	–
Cn1cc(-c2ccc3cnc(NC(=O)[C@@H]4CCCO4)cc3c2)cn1 [Compound 71, (S)—N-(6-(1-Methyl-1H-pyrazol-4-yl)isoquinolin-3-yl)tetrahydrofuran-2-carboxamide]	3900 nM	13.6 nM	62 nM	1510 nM	8100 nM	> 10000 nM	6730 nM	33.4%	–
CC(C)N1CCC(C(=O)Nc2cc3cc(-c4cnn(C)c4)ccc3cn2)CC1 [Compound 75, 1-Isopropyl-N-(6-(1-methyl-1H-pyrazol-4-yl)isoquinolin-3-yl)piperidine-4-carboxamide]	520 nM	2.6 nM	64 nM	227 nM	1320 nM	148 nM	806 nM	–	–
Cn1cc(-c2ccc3cnc(NC(=O)C4CCN(C5COC5)CC4)cc3c2)cn1 [Compound 86, N-(6-(1-methyl-1H-pyrazol-4-yl)isoquinolin-3-yl)-1-(oxetan-3-yl)piperidine-4-carboxamide]	4000 nM	2.5 nM	48 nM	682 nM	> 10000 nM	> 10000 nM	1770 nM	14.6%	–
Cn1cc(-c2ccc3cnc(NC(=O)C4CCN(CC5(C)COC5)CC4)cc3c2)cn1 [Compound 87, N-(6-(1-Methyl-1H-pyrazol-4-yl)isoquinolin-3-yl)-1-((3-methyloxetan-3-yl)methyl)piperidine-4-carboxamide]	1000 nM	3.3 nM	32 nM	414 nM	3160 nM	81 nM	2940 nM	–	–
COCCN1CCC(C(=O)Nc2cc3cc(-c4cnn(C)c4)ccc3cn2)CC1 [Compound 89, 1-(2-Methoxyethyl)-N-(6-(1-methyl-1H-pyrazol-4-yl)isoquinolin-3-yl) piperidine-4-carboxamide]	765 nM	2.7 nM	64 nM	364 nM	738 nM	137 nM	1140 nM	–	–
CC(C)OCCN1CCC(C(=O)Nc2cc3cc(-c4cnn(C)c4)ccc3cn2)CC1 [Compound 90, 1-(2-Isopropoxyethyl)-N-(6-(1-methyl-1H-pyrazol-4-yl)isoquinolin-3-yl) piperidine-4-carboxamide]	1100 nM	3 nM	42 nM	302 nM	1170 nM	96 nM	1080 nM	–	–
Cn1cc(-c2ccc3cnc(NC(=O)C4(F)CCNCC4)cc3c2)cn1 [Compound 91, 4-Fluoro-N-(6-(1-methyl-1H-pyrazol-4-yl)isoquinolin-3-yl)piperidine-4-carboxamide]	> 10000 nM	10.5 nM	838 nM	4700 nM	9590 nM	> 10000 nM	> 10000 nM	17.3%	40%
CN1CCC(F)(C(=O)Nc2cc3cc(-c4cnn(C)c4)ccc3cn2)CC1 [Compound 92, 4-Fluoro-1-methyl-N-(6-(1-methyl-1H-pyrazol-4-yl)isoquinolin-3-yl) piperidine-4-carboxamide]	1600 nM	6.5 nM	361 nM	3900 nM	983 nM	> 10000 nM	> 10000 nM	16.7%	33%
CC(C)CN1CCC(F)(C(=O)Nc2cc3cc(-c4cnn(C)c4)ccc3cn2)CC1 [Compound 96, 4-Fluoro-1-isobutyl-N-(6-(1-methyl-1H-pyrazol-4-yl)isoquinolin-3-yl) piperidine-4-carboxamide]	> 10000 nM	7.1 nM	350 nM	2000 nM	> 10000 nM	677 nM	> 10000 nM	–	5.8%
Cn1cc(-c2ccc3cnc(NC(=O)[C@H]4CCCNC4)cc3c2)cn1 [Compound 110, (S)—N-(6-(1-Methyl-1H-pyrazol-4-yl)isoquinolin-3-yl)piperidine-3-carboxamide]	1100 nM	4.7 nM	34 nM	636 nM	1050 nM	286 nM	484 nM	–	–
CC(C)CN1CCC[C@H](C(=O)Nc2cc3cc(-c4cnn(C)c4)ccc3cn2)C1 [Compound 112, (S)-1-Isobutyl-N-(6-(1-methyl-1H-pyrazol-4-yl)isoquinolin-3-yl)piperidine-3-carboxamide]	3200 nM	20.6 nM	292 nM	1750 nM	6420 nM	546 nM	2990 nM	–	–
CC(C)CN1CCC[C@@H](C(=O)Nc2cc3cc(-c4cnn(C)c4)ccc3cn2)C1 [Compound 113, (R)-1-Isobutyl-N-(6-(1-methyl-1H-pyrazol-4-yl)isoquinolin-3-yl)piperidine-3-carboxamide]	> 10000 nM	24.1 nM	586 nM	3800 nM	> 10000 nM	2110 nM	1920 nM	–	–
Cn1cc(-c2ccc3cnc(NC(=O)C4CCOCC4)cc3c2)cn1 [Compound 114, N-(6-(1-Methyl-1H-pyrazol-4-yl)isoquinolin-3-yl)tetrahydro-2H-pyran-4-carboxamide]	835 nM	1.9 nM	32 nM	286 nM	3890 nM	735 nM	1140 nM	–	–
Cn1cc(-c2ccc3cnc(NC(=O)CN4CCC(F)CC4)cc3c2)cn1 [Compound 116, 2-(4-Fluoropiperidin-1-yl)-N-(6-(1-methyl-1H-pyrazol-4-yl)isoquinolin-3-yl)acetamide]	7100 nM	4.3 nM	24 nM	870 nM	6500 nM	830 nM	1330 nM	–	–
CN1CCN(CC(=O)Nc2cc3cc(-c4cnn(C)c4)ccc3cn2)CC1 [Compound 118, N-(6-(1-Methyl-1H-pyrazol-4-yl)isoquinolin-3-yl)-2-(4-methylpiperazin-1-yl)acetamide]	3600 nM	9.6 nM	79 nM	1200 nM	5940 nM	821 nM	3610 nM	–	–
Cc1ncc(-c2ccc3cnc(NC(=O)C4CC4)cc3c2)n1C [Compound 119, N-(6-(1,2-Dimethyl-1H-imidazol-5-yl)isoquinolin-3-yl) cyclopropanecarboxamide]	1060 nM	2.9 nM	7 nM	418 nM	525 nM	1410 nM	1200 nM	–	–
